Measured values reported in a melting point compilation (Tetko et al.; mined from patent text by program, amines drawn as free bases though some values may be those of a salt).

First: CS(=O)(=O)Nc1cc2c(cc1Oc1ccccc1)C(=O)CCO2
Second: CC=C1c2ccccc2CC(=O)c2ccccc21
The melting point of the first is higher: 143 to 144 °C for the first, 93 to 95 °C for the second.

Compared with `CCOC(=O)C(C(=O)OCC)c1csc(N)n1`, `CCOC(=O)C1=C(C)NC(N=CN(C)C)=C(C(=O)OCC)C1c1ccccc1` (centres undefined) is higher in melting point: 99.5 to 100 °C for the first, 131 °C for the second.

First: Cc1cc2c(c(C)c1NC=O)CC(C)(CI)O2 (centres undefined)
Second: CC1(C)NC(=O)c2cc(C#N)ccc2O1
The melting point of the first is higher: 135 to 138 °C for the first, 127 to 129 °C for the second.

First: Oc1ccccc1-c1nc(-c2ccccc2O)nc(-c2ccccc2O)n1
Second: C=C(C)C(=O)NCc1ccc(S(=O)(=O)ON=C2c3ccccc3-c3ccccc32)cc1
The melting point of the first is lower: 147 to 149 °C for the first, 187 to 188 °C for the second.

Compared with `CCCCCCc1cc(-c2ccccc2)c(OCC(=O)OC)c(-c2ccccc2)c1`, `CCOC(=O)Cc1c(Cl)nc(-c2ccccc2)n1Cc1ccccc1` is lower in melting point: 87 to 89 °C for the first, 72 to 73 °C for the second.

First: COC(=O)CC1CCCN(C(=O)c2ccc(N3CCCC3)cc2Cl)c2ccccc21 (centres undefined)
Second: O=C(Nc1ccccc1Oc1ccc(Cl)cc1Cl)C1CCN(C(=O)c2ccccc2)CC1
The melting point of the first is lower: 158 °C for the first, 176 to 177 °C for the second.

First: Cc1c(-c2cc(O)c(Cl)cc2F)ncnc1C(F)(F)F
Second: N#Cc1nn(-c2c(Cl)cc(C(F)(F)F)cc2Cl)c(Br)c1O
The melting point of the first is lower: 141 to 142 °C for the first, 145 to 151 °C for the second.

First: CCN1C(=O)C(C(=O)Nc2cccc(C(=O)Nc3ccccc3)c2)c2cc(C(=O)C3CCCC3)ccc21 (centres undefined)
Second: CC(=O)Nc1nc(NC(C)=O)nc(-c2ccc(-c3ccccc3)cc2)n1
The melting point of the first is lower: 208 to 213 °C for the first, greater than 260 °C for the second.

First: Cc1noc(NS(=O)(=O)c2ccccc2-c2cccnc2)c1C
Second: CN(C)c1cccc2c(S(=O)(=O)Nc3cnc(Br)c(Cl)n3)cccc12
The melting point of the first is lower: 147 to 150 °C for the first, 180 to 182 °C for the second.

First: Cn1c(-c2ccc(-c3ccccn3)cc2)cnc1[C@H](Cc1ccccn1)N(C=O)c1cc2cc(Cl)ccc2o1
Second: COc1ccc(C2=Nc3cccnc3Nc3ccccc32)cc1
The melting point of the first is lower: 175 to 180 °C for the first, 198 to 200 °C for the second.

First: O=C(CN1CCOCC1)N1CCN(Cc2ccc3c(c2)-c2[nH]nc(-c4ccsc4)c2C3)CC1
Second: CCCCCn1c2ccccc2c2cc(C(=O)N3CCOCC3)ccc21
The melting point of the first is higher: 240 to 242 °C for the first, 99 to 101 °C for the second.

First: COc1ccc(C2=NN(c3ccccc3)C(=O)[C@H]3CC=CC[C@@H]23)cc1OC1CCCC1 (relative stereo)
Second: CC(=O)N1CCC(COC2c3ccccc3C(=O)N2c2ccc3ccc(Cl)nc3n2)CC1 (centres undefined)
The melting point of the first is lower: 134 to 135 °C for the first, 160 °C for the second.

First: Cc1ccc(C2c3c(C)c(Br)c(C)c(C4OCCO4)c3OC2(C)C)cc1 (centres undefined)
Second: COc1ccc(C2CCN(c3c(C)c(C)c4c(c3C)C(N3CCc5ccccc5CC3)C(C)(C)O4)CC2)cc1OC (centres undefined)
The melting point of the first is higher: 169 to 172 °C for the first, 136 to 138 °C for the second.

First: CC(=O)N1CC(CCN2CC=C(c3c[nH]c4cc(Cl)ccc34)CC2)c2cc(F)ccc21 (centres undefined)
Second: CCN1CC=C(c2c[nH]c3ccc([N+](=O)[O-])cc23)CC1
The melting point of the first is lower: 183 to 185 °C for the first, 188 to 190 °C for the second.

Compared with `C=Cc1c(F)c(N2CCN(CC)CC2)c(F)c2c1c(=O)c(C(=O)O)cn2C1CC1`, `COc1ccccc1N1CCN(CCC2CN(C)C(=O)O2)CC1` (centres undefined) is lower in melting point: 198 to 200 °C for the first, 107 to 108 °C for the second.

Compared with `CC(C)C1Cc2ccccc2P1c1ccccc1P1c2ccccc2CC1C(C)C` (single isomer, unassigned; (+)), `Cc1c(CCC(=O)O)ccc2c3ccccc3n(Cc3ccccc3)c12` is higher in melting point: 70 to 71 °C for the first, 160 to 162 °C for the second.

First: N#CCOc1cccc2c1c1cccc3c1n2C(c1ccccc1)CO3 (centres undefined)
Second: O=C(Nc1ccc(-c2nc(-c3ccco3)no2)c(Cl)c1)Oc1ccccc1
The melting point of the first is lower: 61 °C for the first, 184 to 186 °C for the second.

Compared with `CC(=O)Oc1cccc2c1N=CC1CCCN1C2=O` (centres undefined), `O=C1c2c(Cl)cccc2-n2cnc(I)c2[C@@H]2CCCN12` is higher in melting point: 143 to 146 °C for the first, 298 to 300 °C for the second.

Compared with `O=Cc1cccn1-c1ccc(C(=O)O)cc1`, `O=C(C(=O)c1ccn(CC(F)(F)F)c1)c1cccc(Br)c1` is lower in melting point: 269 to 270 °C for the first, 105 to 106 °C for the second.

First: Nc1cnccc1N1CCc2ccccc21
Second: COc1ccc(C2=NN(C(=O)c3cccnc3)CC2)cc1
The melting point of the first is lower: 89 °C for the first, 132 to 134 °C for the second.

First: CC(C)C1(C)N=C(c2ncc(C3OCC(C)(C)CO3)cc2C(=O)O)NC1=O (centres undefined)
Second: CCN1CCCC1CNC(=O)Cc1ccc(-c2ccc3c(=O)c(-c4ncc[nH]4)c(N)n(CC)c3n2)cc1F (centres undefined)
The melting point of the first is higher: 163 to 170 °C for the first, 100 °C for the second.

Compared with `COc1cccn2c(=O)c(CCN3CCc4oc5ccccc5c4C3)c(C)nc12`, `CCOC(=O)c1cn(Cc2ccccc2)nc1OCc1ccc(OCc2nc(-c3ccco3)oc2C)c(Cl)c1` is higher in melting point: 151 °C for the first, 153 to 154 °C for the second.

First: CCCCCCCCCCCCCCCC(=O)OCc1ccco1
Second: CCCCCCCCCC1OC1C(=O)O (centres undefined)
The melting point of the first is lower: 31 to 33 °C for the first, 56 to 57 °C for the second.

First: CCN(CC)CCOc1ccc(Nc2nccc(-c3cccnc3)n2)cc1
Second: CCCCOc1ccc(S(=O)(=O)OC2CN(S(=O)(=O)c3ccc(OCCCC)cc3)C2)cc1
The melting point of the first is lower: 87 to 89 °C for the first, 90 to 93 °C for the second.

First: COc1ccc2ncc(CO)c(O)c2c1
Second: COC(=O)Oc1c(OC)cc(OC)c2ccccc12
The melting point of the first is higher: 327 to 334 °C for the first, 128 to 129 °C for the second.

First: CC(C)(C)NS(=O)(=O)c1cn(CCOC2CCCCO2)c2ccccc12 (centres undefined)
Second: CC[C@H](C)[C@H](NC(=O)NCCC1CCCCC1)C(=O)N[C@H](CO)Cc1c[nH]c2ccccc12
The melting point of the first is lower: 125 to 132 °C for the first, 182 to 184 °C for the second.

Compared with `CC(C)(C)c1cc(-c2nnc(NCCO)s2)cc(C(C)(C)C)c1O`, `Cc1cc(C)c2c(-c3cc(C(C)(C)C)c(O)c(C(C)(C)C)c3)n[nH]c2n1` is higher in melting point: 212 to 214 °C for the first, 257 to 258 °C for the second.

First: CO[C@@H]1O[C@H](C(N)=O)[C@H]2OC(C)(C)O[C@@H]12
Second: CC[C@@H]1NC(C)(C)CO[C@@]1(O)c1cccc(Cl)c1
The melting point of the first is lower: 134 to 136 °C for the first, 160 to 161 °C for the second.

First: CCCCc1nnc(S(=O)Cc2ccc([N+](=O)[O-])cc2)n1Cc1ccc(-c2ccccc2-c2nnn[nH]2)cc1 (centres undefined)
Second: N#Cc1ccsc1C1=CC(=O)Nc2cc(-c3ccc(F)cc3)ccc2N1
The melting point of the first is lower: 222 to 223 °C for the first, 239 to 240 °C for the second.

Compared with `COC(=O)c1cc(C(=O)c2ncc3ccccn23)ccc1[N+](=O)[O-]`, `COC(=O)c1ncn(C(c2ccccc2)c2ccccc2)c1C(=O)OC` is lower in melting point: 151 °C for the first, 93 °C for the second.

First: CSc1ccc(C2OC(=O)NC2O)cc1 (centres undefined)
Second: COc1ccc([C@H]2NC(SC)=N[C@H]2c2ccc(OC)cc2)cc1
The melting point of the first is lower: 130 to 131 °C for the first, 132 to 134 °C for the second.

First: CCNC(=O)C1CC(n2cnc3c(NC(CC)Cc4ccc(Cl)s4)ccnc32)C(O)C1O (centres undefined)
Second: CCCc1nn(-c2ccc(C(F)(F)F)cn2)cc1CCCCOc1c(CC(=O)O)cccc1OC
The melting point of the first is lower: 77 to 85 °C for the first, 111 to 112 °C for the second.

First: Cn1ncc(/C=C/C(=O)O)c1-c1ccoc1
Second: O=C(CC(=O)C1CC1)c1cnc2ccccc2n1
The melting point of the first is higher: 218 to 219 °C for the first, 113 to 115 °C for the second.

First: O=CNc1nc(CSc2ccc([N+](=O)[O-])cc2)cs1
Second: N=C(N)Nc1nc(CSCCNC2=C([N+](=O)[O-])CCCN2)cs1
The melting point of the first is lower: 158 to 160 °C for the first, 211 to 212 °C for the second.

First: NC(=NO)c1ccncc1
Second: NC(=O)N1CC(Oc2ccc(Cl)cc2Cl)C1
The melting point of the first is higher: 203 to 205 °C for the first, 169 to 170 °C for the second.

Compared with `CC1=C(C(=O)c2ccc(C(C)(C)C)cc2)C(=O)C2C=CC=CC2C1=O` (centres undefined), `COC(=O)c1cc2c(C)ccc(C)c2n1C(=O)Oc1ccccc1` is higher in melting point: 64 to 65 °C for the first, 83 to 84 °C for the second.

Compared with `CCO/C(=N/O)C1Cc2cc(C(C)=O)c(O)c(Cl)c2O1` (centres undefined), `CCOC(=O)/C=C(C)/C(F)=C/C=C(C)/C=C/c1c(Cl)cc(OC)c(Cl)c1Cl` is lower in melting point: 154 to 155 °C for the first, 140 to 142 °C for the second.

Compared with `O=C(O)CCCCCOc1cccc2occc12`, `CCCc1c(OCCCCCOc2ccc(C(=O)c3cccc(C(=O)O)c3)cc2CCC(=O)O)ccc2c1OCCC2=O` is higher in melting point: 86 to 87 °C for the first, 122 to 128 °C for the second.

First: CN1CCN(c2nc(=NC(=O)NC(C)(C)C)ss2)CC1
Second: CN1CCN(NC(=O)c2cc([N+](=O)[O-])cc3c2OCCO3)CC1
The melting point of the first is lower: 169 to 172 °C for the first, 210 °C for the second.

First: OCCC(O)OCn1cc(I)c2c(Cl)ncnc21 (centres undefined)
Second: COc1cc2c(c(Cl)c1Cl)C1=CC(=O)CCC1(CCCCl)C2 (centres undefined)
The melting point of the first is lower: 155 to 156 °C for the first, 183 to 185 °C for the second.

Compared with `CCCCOCC(=O)NNC(=O)N1Cc2ccccc2Oc2ccc(Cl)cc21`, `O=NCNC1=Nc2ccccc2N(c2ccccc2)C(=O)C1` is higher in melting point: 93 to 97 °C for the first, 139 to 140 °C for the second.

Compared with `Cc1c(CC[Si](Cl)(Cl)Cl)c(CC[Si](Cl)(Cl)Cl)c(C)c(CC[Si](Cl)(Cl)Cl)c1CC[Si](Cl)(Cl)Cl`, `CCCCCCN(C(=O)Cc1ccccc1)c1nnc(C)s1` is lower in melting point: 220 to 224 °C for the first, 90 °C for the second.

First: CC(C)(C)OC(=O)N1CCC(n2c(=O)n(CC(F)(F)F)c3cc(F)ccc32)CC1
Second: CCOC(=O)Nc1nc(=O)c2cnn3c2n1CC=C3c1cccc(C(F)(F)F)c1
The melting point of the first is lower: 172 to 173 °C for the first, 219 to 220 °C for the second.

First: O=C(O)c1ccccc1NC(C(=O)O)c1ccc(Br)cc1 (centres undefined)
Second: S=c1[nH]c2ccccc2cc1-c1ccccc1
The melting point of the first is lower: 216 °C for the first, 242 to 244 °C for the second.

First: O=c1[nH]c(=O)n(C2CC(OCc3ccccc3)C(COC(c3ccccc3)(c3ccccc3)c3ccccc3)O2)cc1F (centres undefined)
Second: c1ccc(C(OC2CCN(CCCCCNc3ccc4ncnn4n3)CC2)c2ccccc2)cc1
The melting point of the first is higher: 138 to 139 °C for the first, 96 to 98 °C for the second.

First: COCc1c(C)ccc(C(O)=S)c1C
Second: CC(C)On1cnc2c(N)nc3ccccc3c21
The melting point of the first is lower: 192 to 194 °C for the first, 224 to 225 °C for the second.

First: COc1[nH]c(C)cc1C#N
Second: COc1c(Cl)ccc(-c2cc(N)c(Cl)c(C(=O)NOC3CCCCO3)n2)c1F (centres undefined)
The melting point of the first is lower: 105 °C for the first, 176 to 179 °C for the second.

Compared with `Cc1ccc(N(c2ccc(C)cc2)c2ccc(C=Cc3cc(O)cc(O)c3)cc2)cc1`, `COc1cc(-c2cc(C(F)(F)F)nn2-c2ccc(S(N)(=O)=O)cc2)ccc1-c1cocn1` is lower in melting point: 161 °C for the first, 143 to 145 °C for the second.

First: O=[N+]([O-])c1cc(OCc2ccccc2)cc(C2CO2)c1 (centres undefined)
Second: Cc1c(Cl)nc2sc(S(=O)(=O)Cc3ccccc3)nn2c1=O
The melting point of the first is lower: 54 to 55 °C for the first, 211 to 213 °C for the second.

`Nc1cc(=O)n(Cc2cccc(I)c2)[nH]1` gave a melting point of 186 °C.
